Experiments:
[1] = Crystal; DTA
[2] = Molar enthalpy of transition or fusion; settings: Crystal; DSC
[3] = molar heat capacity at constant pressure; settings: 101.33 kPa, Small sample (50 mg) DSC
[4] = molar enthalpy of vaporization or sublimation; settings: 333.15 K, Crystal

[Ni+2].c1cc[cH-]c1.c1cc[cH-]c1 [nickelocene]
Settings	Molar enthalpy of transition or fusion [kcal/mol]	Normal melting temperature [°C]
[1]	–	177.7
[2]	4.54	–

molar heat capacity at constant pressure [J/K/mol], [3]
Settings	Crystal	Gas
293 K	199.08	171.05
294 K	199.83	171.62
295 K	200.59	172.19
296 K	201.35	172.76
297 K	202.1	173.33
298 K	203.05	173.9
298.15 K	203.23	–
299 K	203.8	174.47
300 K	204.37	175.04
301 K	205.31	175.6
302 K	206.07	176.17
303 K	206.63	176.74
304 K	207.2	177.31
305 K	208.15	177.88
306 K	208.9	178.45
307 K	209.66	179.02
308 K	210.6	179.58
309 K	211.36	180.15
310 K	212.11	180.72
311 K	212.68	181.29
312 K	213.43	181.85
313 K	214	182.42
314 K	214.76	182.99
315 K	215.51	183.55
316 K	216.08	184.12
317 K	216.83	184.68
318 K	217.59	185.25
319 K	218.35	185.81
320 K	218.91	186.37
321 K	219.67	186.94
322 K	220.23	187.5
323 K	221.37	188.06
324 K	222.31	188.62
325 K	223.07	189.19
326 K	223.82	189.75
327 K	224.58	190.31
328 K	225.14	190.87
329 K	225.71	191.43
330 K	226.09	191.98
331 K	226.84	192.54
332 K	227.6	193.1
333 K	228.17	193.66
334 K	228.92	194.21
335 K	229.49	194.77
336 K	230.24	195.32
337 K	230.62	195.88
338 K	231.19	196.43
339 K	231.76	196.98
340 K	232.51	197.54
341 K	233.08	198.09
342 K	233.83	198.64
343 K	234.21	199.19
344 K	234.97	199.74
345 K	235.53	200.29
346 K	236.1	200.84
347 K	236.67	201.38
348 K	237.23	201.93
349 K	237.99	202.48
350 K	238.56	203.02
351 K	238.93	203.56
352 K	239.69	204.11
353 K	240.07	204.65

[4]
Settings	molar enthalpy [kcal/mol]
DSC	17.1
Static calorimetry	17.2

— the NIST ThermoML archive (doi:10.1016/j.jct.2011.06.001)
